Molecular target: T1, recombinant human cathepsin K (Homo sapiens, UniProt P43235)
T1 sequence (P43235 115-329): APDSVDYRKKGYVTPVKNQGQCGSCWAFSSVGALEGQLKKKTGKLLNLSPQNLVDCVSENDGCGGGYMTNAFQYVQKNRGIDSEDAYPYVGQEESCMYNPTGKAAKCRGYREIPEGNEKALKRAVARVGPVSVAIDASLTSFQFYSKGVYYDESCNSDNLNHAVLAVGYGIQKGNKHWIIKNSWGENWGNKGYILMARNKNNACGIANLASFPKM
Test: In vitro inhibition of recombinant human cathepsin K (Z-Phe-Arg-AMCA fluorescence assay)
Assay type: biochemical
Conditions: recombinant human cathepsin K 0.16 nM, Z-Phe-Arg-AMCA substrate, pH 7.0, 30 min preincubation, 30 min incubation, ambient temperature
Experimental: The In Vitro assay is Carried out as Follows:
The assay is performed in 96 well microtiter plates at ambient temperature using recombinant human cathepsin K. Inhibition of cathepsin K is assayed at a constant enzyme (0.16 nM) and substrate concentration ([…] Z-Phe-Arg-AMCA—Peptide Institute Inc. Osaka, Japan) in 100 mM sodium phosphate buffer, pH 7.0, containing 2 mM dithiothreitol 20 mM Tween 80 and 1 mM EDTA. Cathepsin K is preincubated with the inhibitors for 30 min, and the reaction is initiated by the addition of substrate. After 30 min incubation the reaction is stopped by the addition of E-64 (2 mM), and fluorescence intensity is read on a multi-well plate reader at excitation and emission wavelengths of 360 and 460 nm, respectively. […] Thus for example, the compounds of Examples 6-15 and 7-45 have IC50s for inhibition of human cathepsin K of 1 nM and 0.6 nM respectively.

IC50 [nM] | SMILES
1 | Cc1ccc(N2CCN(Cc3cc4cnc(C#N)nc4n3CC(C)(C)C)CC2)cc1 [Example 6-15]
0.6 | CC(C)(C)Cn1c(CN2CCC3(CC2)NC(=O)NC3=O)cc2cnc(C#N)nc21 [Example 7-45]

— patent US7452886B2, “Pyrrolo pyrimidines as agents for the inhibition of cystein proteases” (Novartis AG, priority 2001, dated 2008)
